Assay: Toxicokinetics and tissue disposition of total [14C] radioactivity after a single intratracheal dose of [14C]-PCB52 (0.157 mg/kg) in pregnant rats at GD 11±1
Type: in vivo, Sprague–Dawley rats
Method: Female Sprague–Dawley rats (8 weeks old) weighing 237–269.7 g (mean = 247.5 g) (Envigo RMS, LLC, Indianapolis, IN) were used for this study. All animal experiments were performed following the protocols evaluated and approved by the University of Iowa Institutional Animal Care and Use Committee (approval number 3091097). After arrival, the animals were acclimated for 7 days. The animals were housed in a light and temperature-controlled environment with ad libitum access to food and water during quarantine and throughout the study. Timed pregnancy was achieved by harem mating. , Briefly, one male and two female rats were placed together in the evening and checked for vaginal plug the following day. If vaginal plug was present, the male was removed from the breeding cage, and the gestation day 0 (GD 0), 0-day post coitum was assigned. Pregnancies were confirmed by ultrasound scan at GD 9. The dams were exposed at GD 11 (±1 day) to capture the period of early organogenesis and hormonal function, which falls within week 3 of human embryonic development. ,− On the day of the experiment, pregnant rats were intratracheally administered an average of 40 μg (range, 35–45 μg) of [^14C]-PCB52 in 100 μL of exposure solution. Although the dose used in this study exceeded the tolerable daily intake (TDI) of PCBs for healthy individuals, which is 1.6 μg per day for an individual weighing 80 kg, the use of higher acute doses has been established in toxicological studies intended for risk assessment. The intratracheal instillation method was chosen for administering [^14C]-PCB52 to represent inhalation exposures, capture exhaled concentration, and efficiently utilize the limited availability of the cost-intensive radiolabeled PCB52. , Although inhalation exposure would better represent real-world exposures to airborne LC-PCBs, it would not allow us to accurately measure the amount of PCB52 exhaled into the air after exposure and is experimentally infeasible. […] All intratracheal instillations were done under light anesthesia, achieved using a 4% isoflurane concentration via a Fortec vaporizer (Cyprane, Keighley, UK). The animals recovered from anesthesia within 1 min. Subsequently, the animals were housed within a cylindrical glass chamber measuring 2 L in volume, equipped with glass drainage mechanisms to facilitate urine collection and a metallic screen to segregate urine from feces (as in Figure S1). Air was drawn from the chamber at 6.0 L/min through a cartridge containing the XAD-2 polymeric resin to capture any exhaled [^14C]-PCB52. For periods longer than 24 h postexposure, exposed dams were placed in a metabolic cage, which was fitted with a cartridge containing XAD-2 to capture exhaled [^14C]-PCB52 as in other end points.
Maternal blood, urine, and feces samples were collected immediately before and at 0.21, 1.67, 12, 24, 48, and 96 h after lung dosing. The exposed dams were euthanized using 4% isoflurane, followed by cervical dislocation and exsanguination via a cardiac puncture. Euthanasia was consistently performed during the light cycle. Dams’ fur was wiped and analyzed for radioactivity. Using the retro-orbital blood collection method, 0.5–1.5 mL ([…] of an exposed pregnant rat’s body weight) of blood sample was collected from each of the dams until the individual dams were necropsied for whole-body tissue harvesting. At the end of the exposure period, the chamber’s interior walls were rinsed separately with water and acetone/hexane (25 – 45 mL) and wiped to measure residues. From the collected whole blood samples, 100 μL were aliquoted into three vials each, and the remaining blood was allowed to clot at room temperature before being centrifuged to yield serum. The placentas, developing fetuses, and whole-body tissue samples were harvested immediately before exposure and at 0.21, 1.67, 12, 24, and 96 h postexposure. […]

[1] = Salivary gland, 0.21 h post-exposure
[2] = Salivary gland, 1.67 h post-exposure
[3] = Salivary gland, 12 h post-exposure
[4] = Salivary gland, 24 h post-exposure
[5] = Salivary gland, 96 h post-exposure
[6] = mammary gland/MS (maternal serum)
[7] = ratios of toxicokinetic parameters

## Clc1ccc(Cl)c(-c2cc(Cl)ccc2Cl)c1 [PCB52, 2,2′,5,5′-Tetrachlorobiphenyl]
Ovary, 0.21 h post-exposure
  Percent tissue distribution: 0.20%
Ovary, 1.67 h post-exposure
  Conc. per mg wet tissue: 7.08 dpm/mg
  Percent tissue distribution: 0.08%
Ovary, 12 h post-exposure
  Conc. per mg wet tissue: 1.61 dpm/mg
  Percent tissue distribution: 0.02%
Ovary, 24 h post-exposure
  Conc. per mg wet tissue: 5.24 dpm/mg
  Percent tissue distribution: 0.05%
Ovary, 96 h post-exposure
  Percent tissue distribution: 0.02%
Pancreas
  AUC_%Extrap: 37.26%
  Terminal elimination half-life (t1/2): 67.74 h
Pancreas, 0.21 h post-exposure
  Conc. per mg wet tissue: 14.81 dpm/mg
  Percent tissue distribution: 0.91%
Pancreas, 1.67 h post-exposure
  Conc. per mg wet tissue: 4.88 dpm/mg
  Percent tissue distribution: 0.39%
Pancreas, 12 h post-exposure
  Conc. per mg wet tissue: 1.83 dpm/mg
  Percent tissue distribution: 0.07%
Pancreas, 24 h post-exposure
  Conc. per mg wet tissue: 5.17 dpm/mg
  Percent tissue distribution: 0.30%
Pancreas, 96 h post-exposure
  Conc. per mg wet tissue: 38.84 dpm/mg
  Percent tissue distribution: 0.14%
Pituitary gland
  Tmax: 96 h
Rectal Amp.
  AUC_%Extrap: 62.17%
  Terminal elimination half-life (t1/2): 133.61 h
Salivary gland
  AUC_%Extrap: 44.09%
  Terminal elimination half-life (t1/2): 84.60 h
  Tmax: ≤ 0.21 h
[1]
  Conc. per mg wet tissue: 8.48 dpm/mg
  Percent tissue distribution: 0.39%
[2]
  Conc. per mg wet tissue: 2.93 dpm/mg
  Percent tissue distribution: 0.18%
[3]
  Conc. per mg wet tissue: 1.44 dpm/mg
  Percent tissue distribution: 0.04%
[4]
  Conc. per mg wet tissue: 2.06 dpm/mg
  Percent tissue distribution: 0.06%
[5]
  Conc. per mg wet tissue: 0.34 dpm/mg
  Percent tissue distribution: 0.04%
Skin
  AUC_%Extrap: 30.85%
  Terminal elimination half-life (t1/2): 58.90 h
Small Intestine
  AUC_%Extrap: 25.66%
  Terminal elimination half-life (t1/2): 47.33 h
Spleen
  AUC_%Extrap: 35.06%
  Terminal elimination half-life (t1/2): 55.79 h
Spleen, 0.21 h post-exposure
  Conc. per mg wet tissue: 13.12 dpm/mg
  Percent tissue distribution: 0.29%
Spleen, 1.67 h post-exposure
  Conc. per mg wet tissue: 3.05 dpm/mg
  Percent tissue distribution: 0.12%
Spleen, 12 h post-exposure
  Conc. per mg wet tissue: 2.62 dpm/mg
  Percent tissue distribution: 0.04%
Spleen, 24 h post-exposure
  Conc. per mg wet tissue: 5.75 dpm/mg
  Percent tissue distribution: 0.07%
Spleen, 96 h post-exposure
  Conc. per mg wet tissue: 0.87 dpm/mg
  Percent tissue distribution: 0.03%
Stomach
  AUC_%Extrap: 15.03%
  Terminal elimination half-life (t1/2): 32.02 h
  Tmax: ≤ 0.21 h
Stomach, 0.21 h post-exposure
  Conc. per mg wet tissue: 36.55 dpm/mg
  Percent tissue distribution: 0.71%
Stomach, 1.67 h post-exposure
  Conc. per mg wet tissue: 17.01 dpm/mg
  Percent tissue distribution: 0.23%
Stomach, 12 h post-exposure
  Conc. per mg wet tissue: 4.80 dpm/mg
  Percent tissue distribution: 0.33%
Stomach, 24 h post-exposure
  Conc. per mg wet tissue: 6.56 dpm/mg
  Percent tissue distribution: 0.44%
Stomach, 96 h post-exposure
  Conc. per mg wet tissue: 2.28 dpm/mg
  Percent tissue distribution: 0.10%
Thymus
  AUC_%Extrap: 25.14%
  Terminal elimination half-life (t1/2): 53.40 h
Thyroid
  AUC_%Extrap: 12.95%
  Terminal elimination half-life (t1/2): 37.74 h
Tongue, 0.21 h post-exposure
  Conc. per mg wet tissue: 0.16 dpm/mg
  Percent tissue distribution: 0.67%
Tongue, 1.67 h post-exposure
  Conc. per mg wet tissue: 4.42 dpm/mg
  Percent tissue distribution: 0.0003%
Tongue, 12 h post-exposure
  Conc. per mg wet tissue: 1.08 dpm/mg
  Percent tissue distribution: 0.06%
Tongue, 24 h post-exposure
  Conc. per mg wet tissue: 1.03 dpm/mg
  Percent tissue distribution: 0.05%
Tongue, 96 h post-exposure
  Conc. per mg wet tissue: 0.16 dpm/mg
  Percent tissue distribution: 0.01%
Trachea, 0.21 h post-exposure
  Conc. per mg wet tissue: 142.06 dpm/mg
  Percent tissue distribution: 0.83%
Trachea, 1.67 h post-exposure
  Conc. per mg wet tissue: 40.98 dpm/mg
  Percent tissue distribution: 0.24%
Trachea, 12 h post-exposure
  Conc. per mg wet tissue: 13.20 dpm/mg
  Percent tissue distribution: 0.08%
Trachea, 24 h post-exposure
  Conc. per mg wet tissue: 6.29 dpm/mg
  Percent tissue distribution: 0.04%
Trachea, 96 h post-exposure
  Conc. per mg wet tissue: 1.03 dpm/mg
  Percent tissue distribution: 0.01%
Uterus
  AUC_%Extrap: 17.37%
  Terminal elimination half-life (t1/2): 34.85 h
Uterus, 0.21 h post-exposure
  Conc. per mg wet tissue: 0.37 dpm/mg
  Percent tissue distribution: 0.21%
Uterus, 1.67 h post-exposure
  Conc. per mg wet tissue: 2.43 dpm/mg
  Percent tissue distribution: 0.11%
Uterus, 12 h post-exposure
  Conc. per mg wet tissue: 0.93 dpm/mg
  Percent tissue distribution: 0.06%
Uterus, 24 h post-exposure
  Conc. per mg wet tissue: 2.20 dpm/mg
  Percent tissue distribution: 0.16%
Uterus, 96 h post-exposure
  Conc. per mg wet tissue: 0.37 dpm/mg
  Percent tissue distribution: 0.13%
Amniotic fluid
  AUC_% extrap: 7.8%
  AUC_%Extrap: 8.11%
  Terminal elimination half-life (t1/2): 26.38 h
  maternal serum exposure ratio: 0.05
brain/MS (maternal serum)
  AUC0–96h ratio: 0.672
  C max ratio: 0.598
brain/thyroid
  AUC0–96h ratio: 0.276
  C max ratio: 0.298
Brown vs white adipose
  concentration in brown adipose relative to white adipose: five times higher
dams
  biological half-life: less than 2 days
Developing fetuses
  biological half-life: less than 2 days
fetus/AF (amniotic fluid)
  AUC0‑∞ ratio: 5.472
  AUC0–96h ratio: 5.405
  C max ratio: 5.767
fetus/MS (maternal serum)
  AUC0–96h ratio: 0.100
  C max ratio: 0.135
fetus/mammary gland
  AUC0‑∞ ratio: 46.45
  AUC0–96h ratio: 43.42
  C max ratio: 11.47
fetus/ovary
  AUC0‑∞ ratio: 0.078
  AUC0–96h ratio: 0.094
  C max ratio: 0.163
fetus/pituitary
  AUC0–96h ratio: 0.026
  C max ratio: 0.052
fetus/placenta
  AUC0‑∞ ratio: 0.569
  AUC0–96h ratio: 0.538
  C max ratio: 0.778
fetus/thymus
  AUC0‑∞ ratio: 0.125
  AUC0–96h ratio: 0.152
  C max ratio: 0.314
fetus/thyroid
  AUC0‑∞ ratio: 8.805
  AUC0–96h ratio: 8.445
  C max ratio: 8.150
[6]
  AUC0‑∞ ratio: 12.59
  AUC0–96h ratio: 12.52
  C max ratio: 2.822
Maternal serum
  AUC_% extrap: 14.2%
Observed experimental
  blood-to-plasma ratio: 0.53
ovary/MS (maternal serum)
  AUC0–96h ratio: 3.043
  C max ratio: 1.512
pituitary/MS (maternal serum)
  AUC0–96h ratio: 11.289
  C max ratio: 4.741
pituitary/thymus
  AUC0–96h ratio: 5.933
  C max ratio: 4.114
placenta
  AUC_% extrap: 4.1%
  AUC_%Extrap: 4.14%
  Terminal elimination half-life (t1/2): 21.11 h
  maternal serum exposure ratio: 0.5
placenta/MS (maternal serum)
  AUC0‑∞ ratio: 0.477
  AUC0–96h ratio: 0.536
  C max ratio: 0.316
postexposure
  time at which brown/white adipose concentration ratio reached unity: 24 h
[7]
  amniotic fluid-to-fetus ratio: < 1
  fetus-to-amniotic fluid ratio: > 5
thymus/MS (maternal serum)
  AUC0‑∞ ratio: 2.169
  AUC0–96h ratio: 1.903
  C max ratio: 1.152
thyroid/MS (maternal serum)
  AUC0‑∞ ratio: 2.387
  AUC0–96h ratio: 2.435
  C max ratio: 2.005
uterus/MS (maternal serum)
  AUC0‑∞ ratio: 0.917
  AUC0–96h ratio: 0.888
  C max ratio: 0.296
uterus/ovary
  AUC0‑∞ ratio: 0.262
  AUC0–96h ratio: 0.292
  C max ratio: 0.196
